In patent US20210060060A1, “COMPOSITIONS AND METHODS FOR THE TREATMENT OF LUNG EMPHYSEMA AND OTHER FORMS OF COPD” (Emphysema Solutions BV, priority 2018, published 2021):
Like-named read-outs stand apart in the source and are kept apart here.

Experiments:
[1] = test system: porcine pancreatic elastase (PPE)-induced emphysema; assay: Porcine pancreatic elastase (PPE)-induced emphysema model in mice
Method: Methods: In order to assess the effects of copper sulfate plus heparin on both elastin and collagen metabolism in vivo, we used a porcine pancreatic elastase (PPE)-induced emphysema model. Study was conducted in male BALB/c mice aged 7 weeks with a starting body weight of about 25 g. During the study period, all mice were housed in a conventional animal house with a 12/12 h light-dark cycle in filter-top cages and supplied with pelleted food and water ad libitum. 1.5 U porcine pancreatic elastase in 25 μL saline was intratracheally administered on day 1 under light anesthesia. […] On day 35, mice were anesthetized intraperitoneally with a mixture of xylazine (8.5 mg/kg) and ketamine (130 mg/kg), they were tracheotomized and placed in a whole-body plethysmograph to assess lung function. After lung function measurements, mice were euthanized by an intracardiac administration of pentobarbital. The left lung will be snap-frozen in liquid nitrogen and stored at −80° C. for subsequent gene expression studies where ELN, LOX and LOXL1 were measured. The right lung was fixed in 6% paraformaldehyde at a constant hydrostatic pressure of 25 cm fluid column for 24 h. After dehydration and embedding in paraffin, sagittal sections will be stained with various stains and used for histological analyses to measure airspace enlargement (mean linear intercept); and subsequently this lung was used for measuring concentrations of both DES and insoluble collagen. Brains were taken out to measure copper concentrations.

[2] = test system: copper-deficient chicks; conditions: copper repletion in copper-deficient chicks, ref. [7]; cited from earlier work
[3] = test system: rats' lungs; conditions: copper repletion after copper-deficient diet, ref. [15]; cited from earlier work
[4] = test system: pulmonary rat fibroblasts; assay: Fibroblast cell cultures: vitamin K or magnesium sulfate on top of copper sulfate (6c); format: cell-based; conditions: added to copper sulfate (+8*initial copper concentration in medium); for accumulation of collagen: compared to copper sulfate monotherapy
From the text: (§1) Cell cultures with pulmonary rat fibroblasts. • 7.
(§2) We first measured copper levels in the fibroblast medium.

[5] = test system: pulmonary rat fibroblasts
From the text: as §1, §2

[6] = intratracheal on day 1, 8, 15, 22 and 29, day 35, compared to placebo
[7] = fibroblasts grown 21 days, copper sulfate added +0.5 to +32*initial copper concentration in medium

**Q.** For `[Cu]` [copper], which “effect on cerebral copper concentrations” value ([1]; intratracheally administered, mice) is on record?
**A.** no effect

**Q.** What about the “deposition of protease-resistant elastin fibers” value [2] of the same molecule?
**A.** near normal values

**Q.** What about the “ultrastructure of pulmonary elastin” value [3] of the same molecule?
**A.** restored the ultrastructure of pulmonary elastin to near normal

**Q.** With `CC(C)=CCC/C(C)=C/CC/C(C)=C/CC/C(C)=C/CC1=C(C)C(=O)c2ccccc2C1=O` [vitamin K2] as the molecule, how does the DES accumulation [4] read?
**A.** additional stimulating effect

**Q.** What about the ELN gene expression [4] of the same molecule?
**A.** no stimulating effect

**Q.** And the LOX gene expression [4]?
**A.** no stimulating effect

**Q.** And the LOXL1 gene expression [4]?
**A.** no stimulating effect

**Q.** And the insoluble elastin levels [4]?
**A.** additional stimulating effect

**Q.** What about the tropo-elastin levels [4] of the same molecule?
**A.** no stimulating effect

**Q.** What about the accumulation of collagen [4] of the same molecule?
**A.** no additional stimulating effect

**Q.** For `CC1=C(C/C=C(\C)CCC[C@H](C)CCC[C@H](C)CCCC(C)C)C(=O)c2ccccc2C1=O` [vitamin K1], which DES accumulation [4] is on record?
**A.** additional stimulating effect

**Q.** What about the ELN gene expression [4] of the same molecule?
**A.** no stimulating effect

**Q.** And the LOX gene expression [4]?
**A.** no stimulating effect

**Q.** What about the LOXL1 gene expression [4] of the same molecule?
**A.** no stimulating effect

**Q.** What about the insoluble elastin levels [4] of the same molecule?
**A.** additional stimulating effect

**Q.** What about the tropo-elastin levels [4] of the same molecule?
**A.** no stimulating effect

**Q.** And the accumulation of collagen [4]?
**A.** no additional stimulating effect

**Q.** With `O=S(=O)([O-])[O-].[Cu+2]` [copper sulfate] as the molecule, how does the “accumulation of collagen in the lungs” value ([1]; conclusion of the mouse study) read?
**A.** induced accumulation and maturation of collagen fibers

**Q.** What about the “elastin repair process / repair of damaged elastin fibers” value ([1]; conclusion of the mouse study) of the same molecule?
**A.** very effectively stimulated

**Q.** What about the “DES levels in lung tissue” value [1, 6] of the same molecule?
**A.** higher

**Q.** What about the Mean linear intercept [1, 6] of the same molecule?
**A.** lower

**Q.** And the “hydroxyproline levels in lung” value [1, 6]?
**A.** elevated

**Q.** What about the “hyperinflation in the lung function tests (total lung capacity)” value ([1]; intratracheal on day 1, 8, 15, 22 and 29, measured day 35, compared to placebo) of the same molecule?
**A.** More hyperinflation was present in the lung function tests of mice from the placebo group

**Q.** And the “copper concentration at which the dose response curve with regard to DES levels topped off” value ([5]; added on top of the baseline copper (+))?
**A.** ~8 *initial copper concentration in the fibroblast medium

**Q.** And the DES levels [5, 7]?
**A.** increased

**Q.** What about the ELN gene expression [5, 7] of the same molecule?
**A.** did not have any effect

**Q.** What about the LOX activity [5, 7] of the same molecule?
**A.** increased

**Q.** And the LOX gene expression [5, 7]?
**A.** increased

**Q.** What about the LOXL1 gene expression [5, 7] of the same molecule?
**A.** increased

**Q.** With `O=S(=O)([O-])[O-].[Mg+2]` [magnesium sulfate] as the molecule, how does the DES accumulation [4] read?
**A.** additional stimulating effect

**Q.** And the ELN gene expression [4]?
**A.** no stimulating effect

**Q.** What about the LOX gene expression [4] of the same molecule?
**A.** no stimulating effect

**Q.** What about the LOXL1 gene expression [4] of the same molecule?
**A.** no stimulating effect

**Q.** And the tropo-elastin levels [4]?
**A.** no stimulating effect

**Q.** What about the accumulation of collagen [4] of the same molecule?
**A.** no additional stimulating effect

**Q.** For heparin, which “effect on systemic coagulation” value ([1]; mouse, in vivo) is on record?
**A.** did not have any effect
